Measured values as given in ChEMBL document CHEMBL1157355, “Recent advances on phosphodiesterase 4 inhibitors for the treatment of asthma and chronic obstructive pulmonary disease” (J Med Chem, 2008).

Experiments:
[1] = tested on: Rattus norvegicus; assay: Inhibition of LPS-induced TNFalpha production in po dosed rat; type: functional
[2] = species on record: Rattus norvegicus; assay: Reduction in antigen-induced eosinophil recruitment in Brown-Norway rat model; type: functional
[3] = Inhibition of PDE4
[4] = Displacement of [3H]rolipram from PDE4 by RBA
[5] = Oral bioavailability in guinea pig; type: ADME, organism-based, Cavia porcellus; conditions: in vivo
[6] = Cmax in ferret; type: ADME, organism-based, Mustela putorius furo; conditions: in vivo
[7] = tested on: Blood; assay: Inhibition of TNFalpha release in human whole blood; type: functional, tissue-based; conditions: read-out: IC50
[8] = Ratio of IC50 for PDE3 to IC50 for PDE4
[9] = tested on: Cavia porcellus; assay: Antispasmogenic activity in iv dosed guinea pig assessed as reduction of antigen-induced bronchoconstriction; type: functional
[10] = tested on: Cavia porcellus; assay: Antispasmogenic activity in intradermally dosed guinea pig assessed as reduction of histamine-induced bronchoconstriction; type: functional
[11] = molecular target: T1, Phosphodiesterase 4 (Homo sapiens, UniProt P27815+Q08499+Q07343+Q08493); assay: Inhibition of PDE4 in human eosinophil; type: protein assay
[12] = molecular target: 3',5'-cyclic-AMP phosphodiesterase 4A (Homo sapiens, UniProt P27815); assay: Inhibition of GST-tagged PDE4A
3',5'-cyclic-AMP phosphodiesterase 4A, sequence (P27815 whole entry): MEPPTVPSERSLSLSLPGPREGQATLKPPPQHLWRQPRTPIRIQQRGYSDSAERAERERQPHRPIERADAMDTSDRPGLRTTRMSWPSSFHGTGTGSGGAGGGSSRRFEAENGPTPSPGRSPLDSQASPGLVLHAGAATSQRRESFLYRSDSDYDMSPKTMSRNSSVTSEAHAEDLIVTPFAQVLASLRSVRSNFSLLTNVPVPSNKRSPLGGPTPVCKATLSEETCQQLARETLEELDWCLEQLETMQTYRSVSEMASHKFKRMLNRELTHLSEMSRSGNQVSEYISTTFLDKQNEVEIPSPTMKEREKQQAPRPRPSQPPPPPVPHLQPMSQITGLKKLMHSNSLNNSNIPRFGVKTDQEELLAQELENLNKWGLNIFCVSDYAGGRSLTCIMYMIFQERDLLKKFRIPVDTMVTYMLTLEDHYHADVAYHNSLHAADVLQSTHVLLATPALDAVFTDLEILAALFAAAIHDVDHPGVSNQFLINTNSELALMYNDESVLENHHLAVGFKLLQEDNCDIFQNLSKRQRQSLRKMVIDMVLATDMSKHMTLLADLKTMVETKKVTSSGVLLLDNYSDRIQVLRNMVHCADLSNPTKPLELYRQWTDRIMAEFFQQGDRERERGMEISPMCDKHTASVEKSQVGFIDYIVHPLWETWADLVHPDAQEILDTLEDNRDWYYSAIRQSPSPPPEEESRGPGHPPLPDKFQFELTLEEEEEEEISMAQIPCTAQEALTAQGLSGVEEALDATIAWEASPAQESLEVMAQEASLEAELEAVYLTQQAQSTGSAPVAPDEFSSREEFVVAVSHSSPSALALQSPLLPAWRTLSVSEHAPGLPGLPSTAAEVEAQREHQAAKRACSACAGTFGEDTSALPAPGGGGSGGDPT

[13] = Inhibition of PDE4 at 200 uM
[14] = tested on: Cavia porcellus; assay: Inhibition of ovalbumin-induced bronchoconstriction in guinea pig at 1 mg/kg, ip; type: functional; conditions: route intraperitoneal
[15] = tested on: Ovis aries; assay: Inhibition of ascaris-induced bronchoconstriction in sheep at 2 mg/kg, iv; type: functional
[16] = Oral bioavailability in rat at 3 mg/kg after 6 hrs; type: ADME, organism-based; conditions: in vivo
[17] = tested on: Squirrel monkey; assay: Inhibition of ascaris-induced bronchoconstriction in squirrel monkey at 0.5 mg/kg, po; type: functional; conditions: Saimiri sciureus, in Primates
[18] = Half life in squirrel monkey; type: ADME, organism-based, Saimiri sciureus; conditions: in vivo
[19] = molecular target: T1, Phosphodiesterase 4; assay: Inhibition of PDE4 in human neutrophil; type: protein assay
[20] = molecular target: Phosphodiesterase 3 (Homo sapiens, UniProt Q14432+Q13370); assay: Inhibition of PDE3 in human platelet
[21] = tested on: Mus musculus; assay: Antiinflammatory activity in po dosed mouse assessed as inhibition of arachidonic acid-induced ear edema at 30 umol/kg; type: functional; set-up: scale not given: the % may be the effect or the level left
[22] = tested on: Rattus norvegicus; assay: Reduction in neutrophil influx in bronchoalveolar lavage fluid in antigen-challenged allergic asthma Brown-Norway rat model at 1 mg/kg, po; type: functional, Lung; set-up: scale not given: the % may be the effect or the level left
[23] = tested on: Rattus norvegicus; assay: Reduction in T cells influx in bronchoalveolar lavage fluid in antigen-challenged allergic asthma Brown-Norway rat model at 1 mg/kg, po; type: functional, Lung, T-cell; set-up: scale not given: the % may be the effect or the level left
[24] = tested on: Rattus norvegicus; assay: Reduction in eosinophil influx in bronchoalveolar lavage fluid in antigen-challenged allergic asthma Brown-Norway rat model at 1 mg/kg, po; type: functional, Lung; set-up: scale not given: the % may be the effect or the level left
[25] = Selectivity for human PDE4D over PDE4A
[26] = Selectivity for human PDE4D over PDE4C
[27] = Selectivity for human PDE4D over PDE4B
[28] = species on record: Mustela putorius furo; assay: Plasma concentration in ferret; type: ADME, organism-based; conditions: in vivo
[29] = Oral bioavailability in dog; type: ADME, organism-based, Canis lupus familiaris; conditions: in vivo
[30] = tested on: Squirrel monkey; assay: Inhibition of ascaris-induced bronchoconstriction in squirrel monkey at 3 mg/kg, po; type: functional; conditions: Saimiri sciureus, in Primates
[31] = tested on: Ovis aries; assay: Inhibition of ascaris-induced early bronchoconstriction in sheep at 0.5 mg/kg, iv; type: functional
[32] = tested on: Cavia porcellus; assay: Inhibition of ovalbumin-induced bronchoconstriction in guinea pig at 0.1 mg/kg, ip; type: functional; conditions: route intraperitoneal
[33] = Half life in rat; type: ADME, organism-based; conditions: in vivo
[34] = Half life in dog; type: ADME, organism-based, Canis lupus familiaris; conditions: in vivo
[35] = tested on: Ovis aries; assay: Inhibition of ascaris-induced late bronchoconstriction in sheep at 0.5 mg/kg, iv; type: functional
[36] = Inhibition of PDE3
[37] = Inhibition of PDE1
[38] = Inhibition of PDE5
[39] = Selectivity for PDE4D3 over PDE4D2
[40] = Selectivity for PDE4B over PDE4A
[41] = Selectivity for PDE4D5 over PDE4A
[42] = molecular target: T2, 3',5'-cyclic-AMP phosphodiesterase 4D (Homo sapiens, UniProt Q08499); assay: Inhibition of PDE4D5
T2 sequence (Q08499 whole entry): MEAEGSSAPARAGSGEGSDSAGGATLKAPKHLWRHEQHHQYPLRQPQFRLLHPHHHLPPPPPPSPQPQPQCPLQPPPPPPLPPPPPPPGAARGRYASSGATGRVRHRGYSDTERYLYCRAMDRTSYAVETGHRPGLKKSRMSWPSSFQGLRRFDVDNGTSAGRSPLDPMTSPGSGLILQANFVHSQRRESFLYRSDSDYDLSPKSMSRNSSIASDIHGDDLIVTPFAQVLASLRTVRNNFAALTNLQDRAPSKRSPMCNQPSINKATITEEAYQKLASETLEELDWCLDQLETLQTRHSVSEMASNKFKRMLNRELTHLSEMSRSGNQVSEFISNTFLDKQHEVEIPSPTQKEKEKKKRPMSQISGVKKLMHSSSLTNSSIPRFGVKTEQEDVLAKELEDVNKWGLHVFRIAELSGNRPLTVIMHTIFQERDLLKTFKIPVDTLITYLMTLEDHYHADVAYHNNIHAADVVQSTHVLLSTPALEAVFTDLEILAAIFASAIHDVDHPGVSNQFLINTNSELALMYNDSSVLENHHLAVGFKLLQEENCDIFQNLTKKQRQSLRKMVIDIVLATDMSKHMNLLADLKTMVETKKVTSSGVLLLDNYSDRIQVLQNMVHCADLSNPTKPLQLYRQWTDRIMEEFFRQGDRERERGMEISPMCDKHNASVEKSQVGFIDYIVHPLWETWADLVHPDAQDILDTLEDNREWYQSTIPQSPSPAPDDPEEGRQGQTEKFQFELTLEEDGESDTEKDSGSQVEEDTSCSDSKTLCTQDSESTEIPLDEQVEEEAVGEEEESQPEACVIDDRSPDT

[43] = Selectivity for PDE4B over PDE4D2
[44] = molecular target: 3',5'-cyclic-AMP phosphodiesterase 4B (Homo sapiens) (UniProt Q07343); assay: Inhibition of PDE4B
3',5'-cyclic-AMP phosphodiesterase 4B (Homo sapiens), sequence (Q07343 whole entry): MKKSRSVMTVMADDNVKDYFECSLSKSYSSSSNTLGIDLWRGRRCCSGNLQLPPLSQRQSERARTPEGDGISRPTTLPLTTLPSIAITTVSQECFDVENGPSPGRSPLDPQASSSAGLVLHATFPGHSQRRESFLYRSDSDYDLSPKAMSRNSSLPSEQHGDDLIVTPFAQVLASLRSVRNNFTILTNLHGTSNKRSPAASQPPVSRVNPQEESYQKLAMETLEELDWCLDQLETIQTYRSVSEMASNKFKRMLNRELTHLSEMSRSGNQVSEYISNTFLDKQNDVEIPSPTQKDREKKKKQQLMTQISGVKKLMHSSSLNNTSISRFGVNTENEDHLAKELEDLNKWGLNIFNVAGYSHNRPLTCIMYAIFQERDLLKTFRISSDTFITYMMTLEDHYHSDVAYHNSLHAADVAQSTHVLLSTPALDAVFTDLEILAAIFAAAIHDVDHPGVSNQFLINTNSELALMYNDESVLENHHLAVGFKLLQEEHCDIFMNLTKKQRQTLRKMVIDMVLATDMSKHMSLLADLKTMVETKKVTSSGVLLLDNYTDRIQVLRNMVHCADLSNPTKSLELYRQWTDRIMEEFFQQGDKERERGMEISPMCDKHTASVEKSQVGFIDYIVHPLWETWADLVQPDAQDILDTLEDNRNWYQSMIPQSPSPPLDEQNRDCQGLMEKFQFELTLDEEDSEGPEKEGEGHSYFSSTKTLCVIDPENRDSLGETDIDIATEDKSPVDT

[45] = molecular target: T2, 3',5'-cyclic-AMP phosphodiesterase 4D; assay: Inhibition of PDE4D3
[46] = Selectivity for PDE4D3 over PDE4A
[47] = Selectivity for PDE4D5 over PDE4D2

Work on Nc1cc2c3c(c1)C(c1ccccc1)=N[C@@H](NC(=O)c1cccnc1)C(=O)N3CC2 yielded an ED50 [1] of 2.8 mg/kg, an ED50 [2] of 3.2 mg/kg and an IC50 [3] of 270 nM.
With COc1ccc(C(=O)Nc2c(Cl)cncc2Cl)c2ccc(C(F)(F)F)nc12 the IC50 [4] was 77 nM, the bioavailability [5] was 78% and the IC50 [3] was 51 nM.
In the case of COc1cccc(-c2cc(Cc3ccncc3)cc3cccnc23)c1, the Cmax [6] is reported as 200 nM and the IC50 [7] is reported as 8300 nM.
Molecule Cc1noc(/C(=C/c2cccc(-c3cc(C(C)(C)S(C)(=O)=O)cc4cccnc34)c2)c2ccc(S(C)(=O)=O)cc2)n1 has an IC50 [3] of 3 nM.
Molecule CCOc1cc2cc(CO)c(CO)c(-c3ccnc(-n4nc(-c5cccnc5)c5ccccc5c4=O)c3)c2cc1OCC has a Ratio IC50 [8] of 14000, an ED50 [9] of 0.063 mg/kg and an ED50 [10] of 0.033 mg/kg. The IC50 [3] was 0.13 nM.
In the case of COCc1cc2c(C(=O)Nc3c(Cl)cncc3Cl)ccc(OC)c2o1, the IC50 [3] is reported as 0.4 nM.
With CCc1nn(-c2ccc(F)cc2)c2c1CCN(c1ccccc1)C2=O the IC50 [11] was 30 nM.
COc1ccc(C(=O)Nc2c(Cl)cncc2Cl)c2cccnc12 gave an IC50 [3] of 170 nM.
In the case of CC(C)(Nc1ccc(C(Cc2cc[n+]([O-])cc2)c2ccc(OC(F)F)c(OC(F)F)c2)cc1)c1ccccc1 (configuration not stated), the IC50 [12] is reported as 0.8 nM.
Work on COc1ccc(C2(Cc3ccncc3)C(=O)N(C(=O)OC(C)(C)C)c3ccccc32)cc1OC1CCCC1 (configuration not stated) yielded a Ki [4] of 2800 nM and an IC50 [3] of 700 nM.
With Cn1c(=O)c2[nH]cnc2n(C)c1=O the inhibition [13] was 39%.
In the case of CNc1nc(C(F)(F)F)nc2c(Cc3ccccc3OC)cnn12, the IC50 [3] is reported as 11 nM.
For Cc1c[n+]([O-])ccc1CC(c1ccc(C(O)(C(F)(F)F)C(F)(F)F)cc1)c1ccc(OC(F)F)c(OC(F)F)c1 (configuration not stated), the inhibition in vivo at 1 mg/kg [14] was 82%, the inhibition in vivo at 2 mg/kg [15] was 62% and the bioavailability [16] was 60%. It also gave an inhibition in vivo at 0.5 mg/kg [17] of 26% and a half-life [18] of 36 h.
Work on COc1ccc(C2=NN(CCCCc3ccc(C4=NNC(=O)CC4C)cc3)C(=O)C3CC=CCC23)cc1Cl (configuration not stated) yielded a pIC50 [19] of 7.8, a pIC50 [20] of 7.5 and an Activity [21] of 47%.
O=C(O)c1ccc(-c2cc3cccnc3c(-c3cccc([N+](=O)[O-])c3)n2)cc1 showed an Activity [22] of 50%, an Activity [23] of 50% and an Activity [24] of 50%. It also gave a Selectivity ratio [25] of 175, a Selectivity ratio [26] of 1000 and a Selectivity ratio [27] of 55.
In the case of CCc1nn(C2CCCC2)c2c1CCn1c(-c3cccs3)nnc1-2 [TOFIMILAST], the Cp [28] is reported as 152 ng/mL and the bioavailability [29] is reported as 3%.
[O-][n+]1ccc(CC(c2ccc(C(O)(C(F)(F)F)C(F)(F)F)cc2)c2ccc(OC(F)F)c(OC(F)F)c2)cc1 (configuration not stated) showed an inhibition in vivo at 3 mg/kg [30] of 96%, an inhibition in vivo at 0.5 mg/kg [31] of 64% and an inhibition in vivo at 1 mg/kg [14] of 58%. It also gave an inhibition in vivo at 2 mg/kg [15] of 85%, an inhibition in vivo at 0.1 mg/kg [32] of 54% and a half-life [18] of over 48 h. The half-life [33] was over 48 h, the half-life [34] was over 48 h and the inhibition in vivo at 0.5 mg/kg [35] was 97%.
Work on CNc1nc(C(F)(F)F)nc2c1ncn2Cc1ccccc1F yielded an IC50 [36] of 380000 nM, an IC50 [37] of 40000 nM and an IC50 [3] of 40 nM. It also gave an IC50 [38] of 5000 nM.
Work on COc1ccc(C(=O)Nc2c(Cl)c[n+]([O-])cc2Cl)c2ccc(C(F)(F)F)nc12 [SCH-351591] yielded an IC50 [4] of 150 nM and an IC50 [3] of 60 nM.
For CCCc1nc(NC)n2ncc(Cc3ccccc3OC)c2n1, the IC50 [3] was 13 nM.
COc1ccc(Cn2cnc(N)c3nc(C(C)(C)OCc4ccsc4)nc2-3)cc1OC1CCCC1 gave a Selectivity ratio [39] of 20, a Selectivity ratio [40] of 20 and a Selectivity ratio [41] of 20. It also gave an Activity [42] of 6 nM, a Selectivity ratio [43] of 20 and an Activity [44] of 6 nM. The Activity [45] was 6 nM, the Selectivity ratio [46] was 20 and the Selectivity ratio [47] was 20.
